Experimental data published in patent US20220325239A1, “CELL CULTURE” (AGENCY FOR SCIENCE, TECHNOLOGY AND RESEARCH, priority 2019, published 2022).

What was measured:
[1] = tested on: LTR7Y-zsGreen reporter cells; assay: High-throughput small molecule screen for feeder-free maintenance of naïve hESCs (LTR7Y-zsGreen fluorescence); type: cell-based, human; details: 3iL without feeders
Protocol: 3,000 cells cultured in mTeSR1 (STEMCELL Technologies) or 3iL were seeded per well into 384-well plates (Greiner) coated with 30× Matrigel (Corning) or 30× growth factor reduced Matrigel (Corning) in 45 µl of medium. 4 hours after seeding, cells were treated with anti-cancer and anti-kinase libraries (Selleckchem; kinase inhibitor screening library—customised collection of 273 kinase inhibitors, anti-cancer compound library—customized collection of 349 bioactive compounds). Small molecules were used at 3 different concentrations: 100 nM, 1 μM and 10 μM for each condition. 48 hours after the treatment, culture media was renewed concomitant with a second round of treatment with the compounds. […] Images were processed and fluorescence signal was quantified using Columbus Image Data Storage and Analysis System (PerkinElmer). […] Z-score for zsGreen fluorescence was calculated using formula: z=(X−μ)/s.d. where μ—mean, s.d.—standard deviation of whole population, X−integrated intensity of zsGreen divided by total number of cells. […]
We first ensured the quality of the screen by certifying the absence of intra-plate layout biases (FIG. 8I), proper inter-plate alignment (FIG. 8J) and good correlation between replicates (FIG. 8K). Z-scores were then calculated, and compounds that reproducibly scored above noise (z>2 in at least 2 replicates) were regarded as hits (FIG. 1B, S1L). […]

FINE cells = assay: Withdrawal or replacement of AZD5438 / Dasatinib in FINE culture; type: cell-based, human; details: for morphology after withdrawal from FINE: withdrawal for 3 passages; for sustaining feeder-free naïve hESCs when replacing Dasatinib in FINE: 2 passages
Text: FIG. 4A is a diagram showing brightfield and immunofluorescence staining of KLF4, TFE3 and KLF17 in FINE culture after withdrawal of AZD, Dasa or both for 3 passages. Scale bar=50 μm.
FIG. 4B is a diagram showing quantification of fraction of nuclei positive for naïve-associated transcription factors in hESCs cultured in FINE after withdrawal of AZD, Dasa or both for 3 passages. Mean±SD of three independent experiments.
FIG. 4C is a diagram showing expression of blastocyst-associated transcripts in hESCs cultured in FINE after withdrawal of AZD, Dasa or both for 2 passages. Mean±SD of three independent qPCR experiments.
FIG. 4D and FIG. 4E are diagrams showing expression of blastocyst-associated transcripts in hESCs cultured in FINE after (D) replacement of Dasa with other Src and Bcr-Abl inhibitors or (E) replacement of AZD with Dinaciclib (in H9 line) for 2 passages. Mean±SD of three independent qPCR experiments.
Therefore, we wanted to test if both are also important for the maintenance of naivety in FINE.

naïve hESCs = assay: Naïve pluripotency marker expression after short-term supplementation of hits upon feeder withdrawal (qPCR); type: cell-based, human
Text: 3iL and 4 iLA media were supplemented with small molecule compounds at various concentrations for single and combinatory treatments. Small molecules used in the study: Dasatinib (Selleckchem), AZD5438 (TOCRIS), CHIR-98014 (Sigma), Crenolanib (Selleckchem), Saracatinib (Selleckchem), Src Inhibitor-1 (Sigma), Nilotinib (STEMCELL Technologies), Imatinib (STEMCELL Technologies), Dinaciclib (Selleckchem), WH-4-023 (Sigma).
(§1) Total RNA was extracted using TRIzol reagent (Invitrogen) according to manufacturer's protocol followed by DNAase I treatment (Ambion).
(§2) 250-1000 ng of DNAase treated RNA was reverse transcribed using SuperScript II (Invitrogen) and oligo-dT primers (Invitrogen) according to manufacturer's instructions. Reactions were performed in final volume of 20μ1. cDNA was diluted before qPCR analysis.
qPCR was performed using KAPA SYBR FAST master mix (KAPA Biosystem) following standard procedures. qPCR reactions were performed in biological duplicates or triplicates in 384-well plates on the ViiA™ 7 Real-Time PCR System (Life Technologies). Two technical replicates were carried out for each qPCR reaction and data was normalised to GAPDH. The relative abundance of transcripts was calculated using ΔΔC(T) method. […]

human cancer cultures = details: broad spectrum of human cancer cultures; cited from earlier work
cellular CDK substrates = details: cited from earlier work
human tumor xenograft = details: oral, 50 mg/kg/12 h or 75 mg/kg/day, mice; cited from earlier work
H9 cells = assay: Karyotyping / cytogenetic analysis; type: cell-based, human; details: PD0325901 reduced from 1 μM to 0.3 μM
Protocol: FIG. 7B is a diagram showing summary of cytogenetic analysis of H9 cells (top) under various naïve culture conditions (rows) and passage numbers (columns). Representative karyotypes at various passage numbers in FINE (bottom).
Various hESCs lines were seeded into glass cover slip slides as single cells. Karyotyping service including colcemid treatment and G-band analysis was outsourced with Parkway Laboratory Services.

hESCs = assay: Expression of naïve / blastocyst / 8-cell markers under culture conditions (qPCR, immunofluorescence); type: cell-based, human; details: PD0325901 reduced from 1 μM to 0.3 μM, H9
Protocol: as §1, §2
qPCR was performed using KAPA SYBR FAST master mix (KAPA Biosystem) following standard procedures. qPCR reactions were performed in biological duplicates or triplicates in 384-well plates on the ViiA™ 7 Real-Time PCR System (Life Technologies). Two technical replicates were carried out for each qPCR reaction and data was normalised to GAPDH. The relative abundance of transcripts was calculated using ΔΔC(T) method.
Before fixation with 4% formaldehyde (Sigma) cells were washed with PBS (Gibco) in tissue culture plates (Falcon) for 30 minutes at room temperature. Permeabilization was performed with 1% of Triton-X 100 in PBS followed by blocking step performed in blocking buffer (blocking buffer—8% FBS in PBS-T (PBS-T 1% Tween in PBS)) each for 30 minutes at room temperature. Cells were incubated with primary antibodies, diluted in blocking buffer, overnight at 4° C. with gentle agitation. […]

hESC = assay: Adaptation and survival of feeder-free hESCs in 4iLA supplemented with chemical combinations (C1-C21); type: cell-based, human; details: condition 19 background
Text: FIG. 2C is a diagram showing relative survival of hESC culture under 4 iLA supplemented with different chemical combinations conditions (C1-C21) over 9 passages without feeders. 4 iLA was included as control.
We next sought to find a condition that enables stable naïve culture by adapting feeder-free primed hESCs onto media supplemented by one or more of the hits at various concentrations (FIG. 2C, Table E2, below).

SMILES: Cc1nc(Nc2ncc(C(=O)Nc3c(C)cccc3Cl)s2)cc(N2CCN(CCO)CC2)n1.O [Dasatinib, N-(2-chloro-6-methylphenyl)-2-[[6-[4-(2-hydroxyethyl)-1-piperazinyl]-2-methyl-4-pyrimidinyl]amino]-5-thiazole carboxamide monohydrate]
- outcome of the screen (hit) [1]: identified novel regulators of naïve pluripotency
- loss of naivety upon withdrawal from FINE (FINE cells; compared with AZD5438 withdrawal): more pronounced effect
- morphology after withdrawal from FINE (FINE cells): caused dispersal of the compact morphology
- effect on downregulation of naïve pluripotency markers (naïve hESCs; 4iLA, RNA after 12 days): had the same effect

SMILES: Cc1ncc(-c2ccnc(Nc3ccc(S(C)(=O)=O)cc3)n2)n1C(C)C [AZD5438, 4-[2-Methyl-1-(1-methylethyl)-1H-imidazol-5-yl]-N-[4-(methylsulfonyl)phenyl]-2-pyrimidinamine]
- antiproliferation activity (human cancer cultures): displays antiproliferation activity
- inhibition of cellular CDK substrates phosphorylation (cellular CDK substrates): effectively inhibits
- outcome of the screen (hit) [1]: identified novel regulators of naïve pluripotency
- efficacy against human tumor xenograft growth (human tumor xenograft): efficacious
- morphology after withdrawal from FINE (FINE cells): caused dispersal of the compact morphology
- effect on downregulation of naïve pluripotency markers including LTR7Y (naïve hESCs; 3iL, RNA after 6 days): consistently attenuated downregulation

SMILES: Cc1cn(-c2cc(NC(=O)c3ccc(C)c(Nc4nccc(-c5cccnc5)n4)c3)cc(C(F)(F)F)c2)cn1 [Nilotinib]
- sustaining feeder-free naïve hESCs when replacing Dasatinib in FINE (FINE cells): failed to sustain

SMILES: O=C(NOC[C@H](O)CO)c1ccc(F)c(F)c1Nc1ccc(I)cc1F [PD0325901, N-[(2R)-2,3-dihydroxypropoxy]-3,4-difluoro-2-(2-fluoro-4-iodoanilino)benzamide]
- effect of lowered concentration in FINE on acquisition of chromosomal abnormalities (H9 cells): further delayed acquisition of chromosomal abnormalities
- effect of lowered concentration in FINE on naïve pluripotent marker expression (hESCs): slight adverse effect

SMILES: COc1cc2ncnc(Nc3ccc(Oc4ccccc4)cc3)c2cc1OC [SRCi]
- sustaining feeder-free naïve hESCs when replacing Dasatinib in FINE (FINE cells): failed to sustain

SMILES: Cc1ccc(NC(=O)c2ccc(CN3CCN(C)CC3)cc2)cc1Nc1nccc(-c2cccnc2)n1 [Imatinib]
- sustaining feeder-free naïve hESCs when replacing Dasatinib in FINE (FINE cells): failed to sustain

SMILES: COc1ccc(N(C(=O)Oc2c(C)cccc2C)c2ccnc(Nc3ccc(N4CCN(C)CC4)cc3)n2)c(OC)c1 [WH-4-023]
- requirement for adaptation and maintenance of feeder-free naïve cells (hESC): dispensable
- sustaining feeder-free naïve hESCs when replacing Dasatinib in FINE (FINE cells): failed to sustain
